Data published in article PMC9696832, “Pyrazole-Based Thrombin Inhibitors with a Serine-Trapping Mechanism of Action: Synthesis and Biological Activity” (Pharmaceuticals, 2022).
“And” between values parts separate entries of the source, which are not always exact repeats. Identical values can stand only once. Like-named read-outs stand apart in the source and are kept apart here.

Key:
human Factor Xa = biological target: T1, human Factor Xa (Homo sapiens, UniProt P00742); test: Serine protease inhibition assay, fluorogenic substrate: FXa; type: biochemical; conditions: for IC50: screened at 5 μM, IC50 in triplicate for actives, [S]0 = 25 µM, read-out: Serine Protease IC50 ± SD, FXa
T1 construct: human Factor Xa, HFXA; purchased Molecular Innovations HFXA
T1 sequence (P00742 235-488 limits assumed): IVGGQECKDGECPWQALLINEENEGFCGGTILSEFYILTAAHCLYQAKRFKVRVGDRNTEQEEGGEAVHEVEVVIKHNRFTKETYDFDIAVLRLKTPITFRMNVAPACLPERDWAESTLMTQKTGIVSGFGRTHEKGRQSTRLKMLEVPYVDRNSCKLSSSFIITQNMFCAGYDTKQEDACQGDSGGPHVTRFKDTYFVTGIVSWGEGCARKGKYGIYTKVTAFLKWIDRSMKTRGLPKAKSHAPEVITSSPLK
T1 sequence (P00742 41-179 limits assumed): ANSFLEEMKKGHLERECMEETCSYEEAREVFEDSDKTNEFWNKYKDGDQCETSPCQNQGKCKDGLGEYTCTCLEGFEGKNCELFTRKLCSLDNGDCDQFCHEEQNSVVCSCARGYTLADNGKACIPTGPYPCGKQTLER
Method: (§1) Serine protease inhibition assays. The inhibitory activity of synthesized compounds towards thrombin, FXIIa, FXa, FXIa, plasmin, plasma kallikrein, chymotrypsin, and trypsin was measured by quantifying the hydrolysis rate of the fluorogenic substrate as reported previously. Briefly, the activity was tested in buffer (10 mM Tris-Cl, 150 mM NaCl, 10 mM MgCl2·6H2O, 1 mM CaCl2·2H2O, 0.1% w/v BSA, 0.01% v/v Triton-X100, pH = 7.4) utilizing clear flat-bottom, black polystyrene 96 well-plates. […] Dilutions of test-compounds ranging from 2 nM to 32 µM (final concentrations) in DMSO were prepared. The fluorogenic substrate solution was added into the wells followed by the addition of 2 µL of test-compounds solution, and the reaction was triggered by addition of the enzyme solution (final testing volume–152 µL). In case of blank (substrate + buffer) and control (substrate + enzyme) wells, 2 µL of DMSO was added instead of the test-compounds’ solution. Fluorescence intensity was measured with Microplate Reader Mithras LB 940 (Berthold Technologies, excitation at 355 nm, emission at 460 nm) for a period of 1 h (thrombin, FXIIa, FXa, FXIa, and trypsin), 30 min (plasma kallikrein, chymotrypsin), or 15 min (plasmin) with a read every minute. The reactions were performed at 25 °C. To derive IC50 values, endpoint RFU (single fluorescence reading) was used. Sigmoidal curves were prepared in GraphPad Prism software and IC50 values were derived from the fitted curves.

human pooled plasma [1] = test: In vitro plasma coagulation assay (PT); type: biochemical; conditions: tested at 200 μM
Method: (§2) In vitro plasma coagulation assays (aPTT and PT). All measurements were performed using commercially available citrated (3.8%) human pooled plasma (Dunn Labortechnik GmbH, Germany) on a semi-automated coagulometer (Thrombotimer-2, Behnk Elektronik, Germany) according to the manufacturer instructions as previously reported. For aPTT measurement, plasma (100 μL) was placed into the incubation cuvettes of the instrument and incubated for 2 min at 37 °C. Then, test compound solution (10 μL) or solvent (DMSO, 10 μL) was added with a pipette. After 1 min of incubation, 100 μL of prewarmed (37 °C) aPTT reagent (Convergent Technologies, Germany) was added and incubated for additional 2 min. The cuvettes were transferred to a measuring position, the coagulation was initiated by addition of 100 μL of CaCl2 solution (25 mM, prewarmed at 37 °C, Convergent Technologies, Germany) and the clotting time was recorded. For PT assays, plasma (100 μL) was incubated for 2 min at 37 °C. Then, test compound solution (10 μL) or solvent (DMSO, 10 μL) was added with a pipette. After 3 min of incubation, the cuvettes were transferred to a measuring position, the coagulation was initiated by addition of 100 μL of PT assay reagent already containing CaCl2 (prewarmed at 37 °C, Biolabo, France) and the clotting time was recorded.

human plasma kallikrein = biological target: T2, human plasma kallikrein (Homo sapiens, UniProt P03952); test: Serine protease inhibition assay, fluorogenic substrate: plasma kallikrein; type: biochemical; conditions: screened at 5 μM; IC50 in triplicate for actives; [S]0 = 25 µM; read-out: Serine Protease IC50 ± SD, PK (plasma kallikrein)
T2 construct: human plasma kallikrein, >94% purity; purchased Innovative Research
T2 sequence (P03952 391-638 limits assumed): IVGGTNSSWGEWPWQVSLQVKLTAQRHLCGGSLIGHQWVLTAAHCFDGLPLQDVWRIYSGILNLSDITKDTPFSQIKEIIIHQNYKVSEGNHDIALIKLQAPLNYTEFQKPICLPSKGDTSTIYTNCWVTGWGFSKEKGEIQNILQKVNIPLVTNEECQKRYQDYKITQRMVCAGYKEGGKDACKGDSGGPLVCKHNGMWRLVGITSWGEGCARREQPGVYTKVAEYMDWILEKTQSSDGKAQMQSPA
T2 sequence (P03952 20-390 limits assumed): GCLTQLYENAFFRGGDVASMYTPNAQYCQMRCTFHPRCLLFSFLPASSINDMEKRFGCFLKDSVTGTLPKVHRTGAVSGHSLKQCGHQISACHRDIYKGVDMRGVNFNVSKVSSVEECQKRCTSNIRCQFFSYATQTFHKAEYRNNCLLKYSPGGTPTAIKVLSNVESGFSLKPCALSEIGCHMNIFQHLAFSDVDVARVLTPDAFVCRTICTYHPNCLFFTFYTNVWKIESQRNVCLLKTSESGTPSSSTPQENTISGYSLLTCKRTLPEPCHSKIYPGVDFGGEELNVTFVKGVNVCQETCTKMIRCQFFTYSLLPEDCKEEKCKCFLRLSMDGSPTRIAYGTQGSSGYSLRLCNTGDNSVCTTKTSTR
Method: as §1

human chymotrypsin = test: Serine protease inhibition assay, fluorogenic substrate: chymotrypsin; type: biochemical; conditions: for IC50: screened at 5 μM, IC50 in triplicate for actives, [S]0 = 25 µM, read-out: Serine Protease IC50 ± SD, Chymotrypsin
Method: as §1

human plasmin = biological target: T3, human plasmin (Homo sapiens, UniProt P00747); test: Serine protease inhibition assay, fluorogenic substrate: plasmin; type: biochemical; conditions: screened at 5 μM; [S]0 = 25 µM; read-out: Serine Protease IC50 ± SD, Plasmin
T3 construct: human plasmin, >95% purity; purchased Innovative Research
T3 sequence (P00747 581-810 limits assumed): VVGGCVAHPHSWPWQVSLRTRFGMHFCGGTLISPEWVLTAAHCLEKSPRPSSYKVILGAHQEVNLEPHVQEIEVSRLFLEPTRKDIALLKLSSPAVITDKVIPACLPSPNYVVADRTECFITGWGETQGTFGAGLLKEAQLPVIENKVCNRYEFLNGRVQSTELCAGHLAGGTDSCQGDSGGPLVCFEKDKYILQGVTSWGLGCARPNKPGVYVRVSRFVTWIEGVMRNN
T3 sequence (P00747 97-580 limits assumed): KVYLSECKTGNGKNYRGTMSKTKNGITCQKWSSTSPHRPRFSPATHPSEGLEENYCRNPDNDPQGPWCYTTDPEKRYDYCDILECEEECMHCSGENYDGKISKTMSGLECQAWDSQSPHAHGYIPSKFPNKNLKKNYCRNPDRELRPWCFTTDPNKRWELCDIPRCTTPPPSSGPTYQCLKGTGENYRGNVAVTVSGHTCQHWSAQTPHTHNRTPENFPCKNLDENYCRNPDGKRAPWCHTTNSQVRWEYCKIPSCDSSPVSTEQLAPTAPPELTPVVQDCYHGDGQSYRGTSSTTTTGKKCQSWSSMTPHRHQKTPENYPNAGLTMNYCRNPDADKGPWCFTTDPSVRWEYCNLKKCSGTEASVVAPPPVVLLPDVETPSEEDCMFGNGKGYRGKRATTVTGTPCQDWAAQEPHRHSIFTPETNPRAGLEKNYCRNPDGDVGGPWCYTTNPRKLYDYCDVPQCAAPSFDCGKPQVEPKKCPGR
Method: as §1

human α-thrombin [2] = biological target: T4, human α-thrombin (Homo sapiens, UniProt P00734); test: Mass-shift assay of the covalent thrombin-inhibitor complex by LC/ESI-MS; conditions: 79 μM inhibitor, preincubated 15 min, ESI(+); corresponds to pivaloyl moiety
T4 construct: human α-thrombin (active) protein; purchased antibodies-online ABIN2127880
Method: Analysis of the covalent thrombin-inhibitor complex by LC/ESI-MS. The analysis of covalent thrombin-inhibitor complex was performed utilizing LC/ESI-MS as reported previously with variations. Briefly, 2 µL of the stock solution (128 µM) of human α-thrombin (active) protein (ABIN2127880, >95% purity; antibodies-online) were diluted with 68 µL of purified water. […] Reversed phase liquid chromatography was performed using a Discovery BIO Wide Pore C5 column (100 × 2.1 mm, 3 µm particle size, 300 Å pore size) from Supelco (Bellefonte, PA, USA). For chromatographic analysis of the sample solutions, 0.1% formic acid in purified water (A) and 0.1% formic acid in acetonitrile (B) were used as mobile phase. The following gradient of 15 min in total was applied: starting with 5% B, B is increased up to 40% within 3 min. After holding 40% B for 1.5 min, B is decreased to 5% within 0.5 min and kept at 5% for 1 min. B is then increased to 95% within 4 min and kept at this value for 1 min. After decreasing B to 5% within 1 min, this ratio is kept for 3 min. […] The enzyme-inhibitor complex was analyzed in the positive ion mode using the following ESI-MS parameters: The mass range was set to m/z 1000–4000, nebulizer gas (nitrogen) was 1.6 bar, dry gas (nitrogen) was 9.0 L/min, dry gas temperature was 200 °C, Funnel 1 RF was 450 V, pre pulse storage time was 30 µs and transfer time was 100 µs. […]

porcine trypsin = biological target: T5, porcine trypsin (Sus scrofa, UniProt P00761); test: Serine protease inhibition assay, fluorogenic substrate: trypsin; type: biochemical; conditions: screened at 5 μM; [S]0 = 25 µM; read-out: Serine Protease IC50 ± SD, Trypsin
T5 construct: porcine trypsin; Merck; purchased Merck
T5 sequence (P00761 9-231): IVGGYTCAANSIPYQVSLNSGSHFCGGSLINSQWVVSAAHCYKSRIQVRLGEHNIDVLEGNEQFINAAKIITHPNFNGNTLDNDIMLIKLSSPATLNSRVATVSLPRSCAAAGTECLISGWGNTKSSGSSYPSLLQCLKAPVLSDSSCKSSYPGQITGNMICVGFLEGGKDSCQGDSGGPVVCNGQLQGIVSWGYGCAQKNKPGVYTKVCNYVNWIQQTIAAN
Method: as §1

human Factor XIa = biological target: T6, human Factor XIa (Homo sapiens, UniProt P03951); test: Serine protease inhibition assay, fluorogenic substrate: FXIa; type: biochemical
T6 construct: human Factor XIa, HFXIA; purchased Molecular Innovations HFXIA
T6 sequence (P03951 388-625 limits assumed): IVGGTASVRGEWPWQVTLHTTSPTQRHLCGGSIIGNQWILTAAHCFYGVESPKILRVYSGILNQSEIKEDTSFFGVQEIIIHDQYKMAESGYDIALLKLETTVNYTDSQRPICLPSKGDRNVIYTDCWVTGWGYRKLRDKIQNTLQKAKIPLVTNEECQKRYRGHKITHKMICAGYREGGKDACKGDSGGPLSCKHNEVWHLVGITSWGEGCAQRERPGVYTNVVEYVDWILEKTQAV
T6 sequence (P03951 19-387 limits assumed): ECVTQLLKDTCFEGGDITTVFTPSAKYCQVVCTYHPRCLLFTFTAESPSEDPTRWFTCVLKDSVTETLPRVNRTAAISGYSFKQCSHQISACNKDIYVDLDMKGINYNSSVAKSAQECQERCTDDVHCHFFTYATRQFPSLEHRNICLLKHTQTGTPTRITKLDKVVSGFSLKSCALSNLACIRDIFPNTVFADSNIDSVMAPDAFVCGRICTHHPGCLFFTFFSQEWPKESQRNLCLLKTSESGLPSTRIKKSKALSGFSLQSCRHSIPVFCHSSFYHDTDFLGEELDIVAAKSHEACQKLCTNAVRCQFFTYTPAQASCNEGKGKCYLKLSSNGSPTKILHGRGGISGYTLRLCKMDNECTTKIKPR
Method: as §1

human β-FXIIa = biological target: T7, human β-FXIIa (Homo sapiens, UniProt P00748); test: Serine protease inhibition assay, fluorogenic substrate: FXIIa; type: biochemical; conditions: read-out: Serine Protease IC50 ± SD, FXIIa
T7 construct: human β-FXIIa, HFXIIAB; purchased Molecular Innovations HFXIIAB
T7 sequence (P00748 373-615 limits assumed, other chains not shown): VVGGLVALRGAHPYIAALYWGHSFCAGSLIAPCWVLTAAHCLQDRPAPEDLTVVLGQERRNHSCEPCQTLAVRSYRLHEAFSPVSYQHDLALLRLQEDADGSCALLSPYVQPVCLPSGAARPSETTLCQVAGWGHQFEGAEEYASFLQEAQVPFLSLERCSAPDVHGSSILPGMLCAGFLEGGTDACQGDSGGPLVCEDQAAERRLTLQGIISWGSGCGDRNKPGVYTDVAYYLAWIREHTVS
Method: as §1

human pooled plasma [3] = test: In vitro plasma coagulation assay (aPTT); type: biochemical; conditions: tested at 200 μM
Method: as §2

human α-thrombin [4] = biological target: T4, human α-thrombin; test: Serine protease inhibition assay, fluorogenic substrate: thrombin; type: biochemical
Method: Serine protease inhibition assays. The inhibitory activity of synthesized compounds towards thrombin, FXIIa, FXa, FXIa, plasmin, plasma kallikrein, chymotrypsin, and trypsin was measured by quantifying the hydrolysis rate of the fluorogenic substrate as reported previously [14, 17]. Briefly, the activity was tested in buffer (10 mM Tris-Cl, 150 mM NaCl, 10 mM MgCl2·6H2O, 1 mM CaCl2·2H2O, 0.1% w/v BSA, 0.01% v/v Triton-X100, pH = 7.4) utilizing clear flat-bottom, black polystyrene 96 well-plates. […] The fluorogenic substrate solution was added into the wells followed by the addition of 2 µL of test-compounds solution, and the reaction was triggered by addition of the enzyme solution (final testing volume–152 µL). In case of blank (substrate + buffer) and control (substrate + enzyme) wells, 2 µL of DMSO was added instead of the test-compounds’ solution. […] To derive IC50 values, endpoint RFU (single fluorescence reading) was used. Sigmoidal curves were prepared in GraphPad Prism software and IC50 values were derived from the fitted curves [14, 17].

[5] = screened at 5 μM, IC50 in triplicate for actives, [S]0 = 25 µM, read-out: Serine Protease IC50 ± SD, FXIa
[6] = [S]0 = 25 µM Boc-Val-Pro-Arg-AMC, Km = 18 ± 1 µM, triplicate, 25 °C, read-out: Serine Protease IC50 ± SD, Thrombin
[7] = read-out: Serine Protease IC50 ± SD, Thrombin

SMILES | IC50 (human Factor Xa) | IC50 (human plasma kallikrein) | IC50 (human chymotrypsin) | IC50 (human plasmin) | mass-shift of thrombin after incubation with inhibitor (Δm) (human α-thrombin [2]) | IC50 (porcine trypsin) | IC50 (human Factor XIa; [5]) | IC50 (human β-FXIIa) | melting point | fold more potent thrombin inhibitor than 3-phenyl-substituted analog 24g (human α-thrombin [4]; IC50 16 nM vs. 419) | IC50 (human α-thrombin [4]; [6]) | inhibition at 5 µM (human Factor Xa; at 5 μM) | IC50 (human Factor XIa; read-out: FXIa IC50) | IC50 (human α-thrombin [4]; [7]) | IC50 (human α-thrombin [4]; read-out: thrombin IC50) | PT, fold increase compared to DMSO (human pooled plasma [1]) | fold higher dose for 50% inhibition of chymotrypsin than for thrombin (human chymotrypsin; selectivity chymotrypsin vs thrombin) | aPTT, fold increase compared to DMSO (human pooled plasma [3])
O=C(c1ccccc1)n1nc(-c2cccnc2)cc1NCc1ccc(Cl)s1 [compound 25, (5-{[(5-chlorothiophen-2-yl)methyl]amino}-3-(pyridin-3-yl)-1H-pyrazol-1-yl)(phenyl)methanone] | ~5 µM | 0.639 ± 0.156 µM | 0.242 ± 0.013 µM | > 5 µM |  | > 5 µM | 1.02 ± 0.09 µM | > 5 µM |  |  | 0.018 ± 0.001 µM | 54% | 1 µM |  |  | 1.2 fold |  | 1.1 fold
O=C(c1ccccc1I)n1nc(-c2cccnc2)cc1NCc1ccco1 [9d, {5-[(furan-2-ylmethyl)amino]-3-(pyridin-3-yl)-1H-pyrazol-1-yl}(2-iodophenyl)methanone] |  |  |  |  |  |  |  | > 5 µM | 103 to 104 °C |  |  |  |  | > 5 µM |  |  |  | 
COc1ccc(CNc2cc(-c3cccnc3)nn2C(=O)c2ccccc2I)cc1 [9b, (2-iodophenyl){5-[(4-methoxybenzyl)amino]-3-(pyridin-3-yl)-1H-pyrazol-1-yl}methanone] |  |  |  |  |  |  |  | > 5 µM | 136 to 137 °C |  |  |  |  | > 5 µM |  |  |  | 

More lines, main results first:

IC50 (human Factor Xa) | IC50 (human plasma kallikrein) | IC50 (human chymotrypsin) | IC50 (human plasmin) | mass-shift of thrombin after incubation with inhibitor (Δm) (human α-thrombin [2]) | IC50 (porcine trypsin) | IC50 (human Factor XIa; [5]) | IC50 (human β-FXIIa) | melting point | fold more potent thrombin inhibitor than 3-phenyl-substituted analog 24g (human α-thrombin [4]; IC50 16 nM vs. 419) | IC50 (human α-thrombin [4]; [6]) | inhibition at 5 µM (human Factor Xa; at 5 μM) | IC50 (human Factor XIa; read-out: FXIa IC50) | IC50 (human α-thrombin [4]; [7]) | IC50 (human α-thrombin [4]; read-out: thrombin IC50) | SMILES | PT, fold increase compared to DMSO (human pooled plasma [1]) | fold higher dose for 50% inhibition of chymotrypsin than for thrombin (human chymotrypsin; selectivity chymotrypsin vs thrombin) | aPTT, fold increase compared to DMSO (human pooled plasma [3])
> 5 µM | > 5 µM | 0.875 ± 0.059 µM | > 5 µM | 84.5 Da and 84.53 Da | > 5 µM | > 5 µM | > 5 µM | 96 to 97 °C | 26 fold | 0.016 ± 0.001 µM |  |  |  |  | CC(C)(C)C(=O)n1nc(-c2cccnc2)cc1NCc1ccc(Cl)s1 [24e, 1-(5-{[(5-chlorothiophen-2-yl)methyl]amino}-3-(pyridin-3-yl)-1H-pyrazol-1-yl)-2,2-dimethylpropan-1-one] | 1.1 fold | 55 fold | 1.1 fold
> 5 µM | > 5 µM | > 5 µM | > 5 µM |  | > 5 µM | > 5 µM | > 5 µM |  |  | 0.08 ± 0.002 µM |  |  |  |  | CC(C)(C)C(=O)n1nc(-c2ccccc2)c(F)c1NCc1ccc(Cl)s1 [34a, 1-(5-(((5-chlorothiophen-2-yl)methyl)amino)-4-fluoro-3-phenyl-1H-pyrazol-1-yl)-2,2-dimethylpropan-1-one] | 1.1 fold |  | 1.0 fold
 |  |  |  |  |  |  | > 5 µM | 245 °C |  |  |  |  | > 5 µM |  | COc1ccc(Cn2c3ccccc3c(=O)n3nc(-c4cccnc4)cc23)cc1 [10b, 4-(4-methoxybenzyl)-2-(pyridin-3-yl)pyrazolo[5,1-b]quinazolin-9(4H)-one] |  |  | 
 |  |  |  |  |  |  | > 5 µM | 130 °C |  | 1.282 ± 0.009 µM |  |  |  | ~1.3 µM | COc1ccc(CNc2cc(-c3cccnc3)nn2C(=O)C(C)(C)C)cc1 [24b, 1-{5-[(4-methoxybenzyl)amino]-3-(pyridin-3-yl)-1H-pyrazol-1-yl}-2,2-dimethylpropan-1-one] |  |  | 
 |  |  |  |  |  |  | > 5 µM | 180 to 181 °C |  |  |  |  | > 5 µM |  | O=c1c2ccccc2n(Cc2ccccc2)c2cc(C3CCCCC3)nn12 [10h, 4-benzyl-2-cyclohexylpyrazolo[5,1-b]quinazolin-9(4H)-one] |  |  | 
> 5 µM | > 5 µM | 1.15 ± 0.11 µM | > 5 µM |  | > 5 µM | > 5 µM | > 5 µM |  |  |  |  |  | 0.071 ± 0.003 µM |  | O=C(c1ccccc1)n1nc(-c2ccccc2)c(F)c1NCc1ccc(Cl)s1 [34b, (5-(((5-chlorothiophen-2-yl)methyl)amino)-4-fluoro-3-phenyl-1H-pyrazol-1-yl)(phenyl)methanone] | 1.1 fold |  | 1.0 fold
 |  |  |  |  |  |  | > 5 µM | 248 to 249 °C |  |  |  |  | > 5 µM |  | O=c1c2ccccc2n(Cc2ccc(Cl)s2)c2cc(-c3cccnc3)nn12 [10e, 4-[(5-chlorothiophen-2-yl)methyl]-2-(pyridin-3-yl)pyrazolo[5,1-b]quinazolin-9(4H)-one] |  |  | 
